{"source": "patent US9988371B2", "about": "“Benzimidazole analogues and related methods” (The Arizona Board of Regents, on Behalf of the University …, priority 2014, dated 2018)", "key": {"VEGFR2": {"biological_target": "VEGFR2 (Homo sapiens, UniProt P35968)", "sequence (P35968 20-1356)": "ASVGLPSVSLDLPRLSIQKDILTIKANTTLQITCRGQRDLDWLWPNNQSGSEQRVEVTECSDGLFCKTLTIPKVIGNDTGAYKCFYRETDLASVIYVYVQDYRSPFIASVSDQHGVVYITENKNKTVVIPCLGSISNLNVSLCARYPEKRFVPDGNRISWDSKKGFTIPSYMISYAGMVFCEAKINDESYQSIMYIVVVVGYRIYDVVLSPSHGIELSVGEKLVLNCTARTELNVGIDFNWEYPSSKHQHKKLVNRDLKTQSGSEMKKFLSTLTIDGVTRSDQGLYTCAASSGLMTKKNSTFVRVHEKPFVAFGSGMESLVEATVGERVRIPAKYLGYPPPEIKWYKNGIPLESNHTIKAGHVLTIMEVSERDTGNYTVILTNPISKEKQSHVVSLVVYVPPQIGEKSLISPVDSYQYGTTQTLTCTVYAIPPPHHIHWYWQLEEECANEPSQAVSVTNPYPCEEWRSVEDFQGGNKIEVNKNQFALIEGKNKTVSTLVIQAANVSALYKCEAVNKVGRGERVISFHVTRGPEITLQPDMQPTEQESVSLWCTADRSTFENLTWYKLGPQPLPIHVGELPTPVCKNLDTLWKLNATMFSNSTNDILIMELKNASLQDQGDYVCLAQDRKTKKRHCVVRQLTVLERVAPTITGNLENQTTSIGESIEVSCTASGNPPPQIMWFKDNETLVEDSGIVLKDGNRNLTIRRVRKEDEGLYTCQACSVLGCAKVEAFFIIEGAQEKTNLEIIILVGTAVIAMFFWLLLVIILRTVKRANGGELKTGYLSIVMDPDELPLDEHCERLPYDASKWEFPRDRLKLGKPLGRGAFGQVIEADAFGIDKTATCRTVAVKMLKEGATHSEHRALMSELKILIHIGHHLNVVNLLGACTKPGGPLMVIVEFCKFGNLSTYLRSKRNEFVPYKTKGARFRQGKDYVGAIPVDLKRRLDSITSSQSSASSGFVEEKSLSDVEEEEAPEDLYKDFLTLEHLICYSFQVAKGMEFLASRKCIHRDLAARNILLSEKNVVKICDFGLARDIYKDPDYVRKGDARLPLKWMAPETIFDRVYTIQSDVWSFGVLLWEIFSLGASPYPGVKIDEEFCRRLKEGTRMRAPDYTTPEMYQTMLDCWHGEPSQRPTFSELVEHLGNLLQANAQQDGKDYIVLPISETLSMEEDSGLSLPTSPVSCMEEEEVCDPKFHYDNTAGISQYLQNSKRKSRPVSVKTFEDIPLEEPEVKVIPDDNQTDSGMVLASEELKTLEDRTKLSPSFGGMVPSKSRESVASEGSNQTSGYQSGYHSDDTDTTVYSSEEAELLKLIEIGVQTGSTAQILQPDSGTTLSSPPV", "assay": "VEGFR2 autophosphorylation immunoblot in HEK293 cells stimulated with VEGF", "type": "cell-based", "set-up": "expressed in transfected cells; host or cells: HEK293", "procedure": "FIG. 4: Photograph of blot showing inhibition of VEGFR2 phosphorylation ectopically expressed in HEK293 cells by indicated doses of Pz-1 or vehicle (NT: not treated). HEK293 cells were transiently transfected with vector expressing VEGFR2. 36 hr following transfection, cells were serum-starved for 12 hr, treated for 2 hr with indicated concentrations of Pz-1 and finally treated with VEGF-A (100 ng/ml) for 15 min. 50 μg of total cell lysates were subjected to immunoblotting with anti-phospho-Y1175 (αpVEGFR2) VEGFR2 antibodies. The blot was normalized using anti-VEGFR2 (αVEGFR2) antibody.\nThe inhibition of RET auto-phosphorylation by Pz-1 was measured in several different cell lines including NIH3T3 fibroblasts expressing RET/C634Y or RET/M918T, TT expressing RET/C634W (MTC), Nthy-ory-3-1 (thyroid, non-transformed with RET; negative control), HEK293/RET/PTC1 (CCDC6-RET that can be found in PTC & lung cancer), HEK293/RET-KIF5B (that can be found in lung cancer), HEK293/RET/PTC3 (NCOA4-RET, that can be found in PTC & lung cancer), and HEK293 transfected with RET/C634R-V804M (FIGS. 1-3). HEK293 cells were transiently transfected with expression vectors comprising the desired mutant. […]\nProtein lysates were prepared according to standard procedures. […] Immune complexes were detected with the enhanced chemiluminescence kit (Amersham Pharmacia Biotech, Little Chalfort, UK). […]"}, "CYP2D6": {"biological_target": "CYP2D6 (Homo sapiens, UniProt P10635)", "sequence (P10635 whole entry)": "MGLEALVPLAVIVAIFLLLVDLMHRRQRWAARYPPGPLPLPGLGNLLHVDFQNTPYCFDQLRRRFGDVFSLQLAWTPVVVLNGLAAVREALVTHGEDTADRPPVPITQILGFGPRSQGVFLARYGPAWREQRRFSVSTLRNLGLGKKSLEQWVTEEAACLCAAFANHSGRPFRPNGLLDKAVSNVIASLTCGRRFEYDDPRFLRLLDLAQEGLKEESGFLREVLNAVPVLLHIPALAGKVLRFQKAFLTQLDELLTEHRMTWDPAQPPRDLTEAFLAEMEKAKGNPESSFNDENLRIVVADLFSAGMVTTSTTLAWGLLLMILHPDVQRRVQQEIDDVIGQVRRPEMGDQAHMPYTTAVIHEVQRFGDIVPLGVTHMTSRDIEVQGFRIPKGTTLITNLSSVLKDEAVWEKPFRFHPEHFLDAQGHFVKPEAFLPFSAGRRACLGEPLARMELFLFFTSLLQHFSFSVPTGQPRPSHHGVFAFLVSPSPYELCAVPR", "assay": "CYP inhibition", "type": "in vitro ADME", "conditions": "read-out: CYP 2D6 IC50"}}}
{"smiles": "Cn1cc(-c2ccc3c(c2)ncn3-c2ccc(CC(=O)Nc3cc(C(C)(C)C)on3)cc2)cn1", "note": "[Pz-1, N-(5-(tert-butyl)isoxazol-3-yl)-2-(4-(5-(1-methyl-1H-pyrazol-4-yl)-1H-benzo[d]imidazol-1-yl)phenyl)acetamide]", "values": [{"measurement": "inhibition of VEGFR2 autophosphorylation", "setting": "VEGFR2; 1 nM, HEK 293 transiently transfected with VEGFR2, stimulated with VEGF", "result": "strongly inhibited"}, {"measurement": "inhibition of VEGFR2 auto-phosphorylation", "setting": "VEGFR2; nanomolar concentrations", "result": 90, "unit": "%"}, {"measurement": "IC50", "setting": "CYP2D6", "result": 13.8, "unit": "µM"}]}
